# Source: US8741934B2, “Inhibitors of ion channels” (Pfizer Limited, priority 2007, dated 2014)
# Target: T1, hSCN3A sodium channels (Homo sapiens, UniProt Q9NY46)
# T1 construct: expressed in transfected cells
# Assay: hSCN3A electrophysiology, whole-cell patch-clamp or PatchXpress 7000, estimated IC-50 (Table B)
# Type: cell-based
# Details: estimated IC-50; hSCN3A cells, whole-cell patch-clamp or PatchXpress 7000; read-out: SCN3A EIC-50
# In short: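 A 20 msec test pulse to 0 mV followed an 8 sec conditioning prepulse at each cell's measured V1/2. Room-temperature (22-24° C) recordings on HEK cells stably expressing the channel, conventional or PatchXpress.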
# T1 sequence (Q9NY46 whole entry): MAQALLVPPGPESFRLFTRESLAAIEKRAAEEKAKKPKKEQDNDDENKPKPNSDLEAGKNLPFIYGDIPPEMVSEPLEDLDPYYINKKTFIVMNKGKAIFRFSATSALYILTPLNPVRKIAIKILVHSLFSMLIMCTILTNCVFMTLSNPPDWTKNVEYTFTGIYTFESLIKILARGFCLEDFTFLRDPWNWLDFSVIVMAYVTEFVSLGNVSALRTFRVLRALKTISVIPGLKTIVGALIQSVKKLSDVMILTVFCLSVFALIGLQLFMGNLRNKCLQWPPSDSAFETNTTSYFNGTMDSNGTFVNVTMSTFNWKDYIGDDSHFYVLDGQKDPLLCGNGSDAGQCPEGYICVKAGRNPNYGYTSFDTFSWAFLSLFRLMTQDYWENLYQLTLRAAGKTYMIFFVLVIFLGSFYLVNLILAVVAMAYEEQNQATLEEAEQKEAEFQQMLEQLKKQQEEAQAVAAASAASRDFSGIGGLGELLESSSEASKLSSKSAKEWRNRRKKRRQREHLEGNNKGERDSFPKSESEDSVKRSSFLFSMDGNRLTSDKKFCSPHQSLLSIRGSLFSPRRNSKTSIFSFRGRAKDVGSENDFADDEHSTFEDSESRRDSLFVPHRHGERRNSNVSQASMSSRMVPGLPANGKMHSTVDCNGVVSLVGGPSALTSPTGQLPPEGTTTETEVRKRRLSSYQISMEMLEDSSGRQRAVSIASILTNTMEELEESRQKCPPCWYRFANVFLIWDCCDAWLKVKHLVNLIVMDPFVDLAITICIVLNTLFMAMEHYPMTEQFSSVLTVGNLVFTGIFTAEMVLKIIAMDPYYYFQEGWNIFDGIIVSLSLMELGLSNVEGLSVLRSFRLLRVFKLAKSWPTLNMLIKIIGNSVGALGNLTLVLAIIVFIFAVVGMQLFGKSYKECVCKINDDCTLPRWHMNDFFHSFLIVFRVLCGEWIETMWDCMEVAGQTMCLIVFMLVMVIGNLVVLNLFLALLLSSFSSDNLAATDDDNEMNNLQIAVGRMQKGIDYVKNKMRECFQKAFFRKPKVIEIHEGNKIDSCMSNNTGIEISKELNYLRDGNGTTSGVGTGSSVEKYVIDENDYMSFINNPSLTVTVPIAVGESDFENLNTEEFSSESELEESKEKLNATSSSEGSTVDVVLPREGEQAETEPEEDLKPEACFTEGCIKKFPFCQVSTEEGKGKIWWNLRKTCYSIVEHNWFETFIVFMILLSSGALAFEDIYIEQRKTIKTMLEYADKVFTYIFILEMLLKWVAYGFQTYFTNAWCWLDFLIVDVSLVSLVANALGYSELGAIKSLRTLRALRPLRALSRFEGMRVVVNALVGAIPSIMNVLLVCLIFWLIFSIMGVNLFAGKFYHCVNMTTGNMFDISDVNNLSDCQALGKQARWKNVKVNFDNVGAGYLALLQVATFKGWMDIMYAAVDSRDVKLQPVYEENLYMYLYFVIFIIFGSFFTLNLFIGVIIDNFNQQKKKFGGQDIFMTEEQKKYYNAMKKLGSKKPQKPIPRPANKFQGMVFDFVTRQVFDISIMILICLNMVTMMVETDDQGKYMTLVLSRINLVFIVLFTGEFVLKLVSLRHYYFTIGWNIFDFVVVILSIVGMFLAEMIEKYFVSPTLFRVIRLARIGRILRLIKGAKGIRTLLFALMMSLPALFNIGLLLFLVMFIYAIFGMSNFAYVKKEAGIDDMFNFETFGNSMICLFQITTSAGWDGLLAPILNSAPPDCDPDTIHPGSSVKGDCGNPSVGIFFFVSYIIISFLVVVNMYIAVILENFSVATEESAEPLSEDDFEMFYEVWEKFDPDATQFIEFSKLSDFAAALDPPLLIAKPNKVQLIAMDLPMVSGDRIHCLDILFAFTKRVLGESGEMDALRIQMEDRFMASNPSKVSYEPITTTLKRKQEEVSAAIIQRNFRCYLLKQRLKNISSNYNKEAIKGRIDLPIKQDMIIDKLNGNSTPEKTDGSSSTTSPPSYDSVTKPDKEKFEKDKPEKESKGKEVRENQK
row,Structure (SMILES),IC50
1,"O=C(NCc1ccc(C(F)(F)F)cc1)c1ccc(S(=O)(=O)Nc2cncs2)cc1 [Example 14, 4-[(1,3-Thiazol-5-ylamino)sulfonyl]-N-[4-(trifluoromethyl)benzyl]benzamide]",28100 nM
2,"O=C(NCc1ccc(C(F)(F)F)cc1)c1ccc(S(=O)(=O)Nc2nc(C(F)(F)F)cs2)cc1 [Example 4, N-[4-(Trifluoromethyl)benzyl]-4-({[4-(trifluoromethyl)-1,3-thiazol-2-yl]amino}sulfonyl)benzamide]",2530 nM
3,"O=C(NCCc1ccc(Cl)cc1)c1ccc(S(=O)(=O)Nc2nccs2)cc1 [Example 72, N-[2-(4-chlorophenyl)ethyl]-4-[(1,3-thiazol-2-ylamino)sulfonyl]benzamide]",660 nM
4,"O=C(NCc1ccc(F)c(C(F)(F)F)c1)c1ccc(S(=O)(=O)Nc2ncc(Cl)s2)c(Cl)c1 [Example 370, 3-Chloro-4-{[(5-chloro-1,3-thiazol-2-yl)amino]sulfonyl}-N-[4-fluoro-3-(trifluoromethyl)benzyl]benzamide]",1220 nM
5,"O=C(NCc1ccc(C(F)(F)F)cc1)c1cccc(S(=O)(=O)Nc2nccs2)c1 [Example 349, 3-[(1,3-Thiazol-2-ylamino)sulfonyl]-N-[4-(trifluoromethyl)benzyl]benzamide]",9870 nM
6,"O=C(NCc1cccc(OC(F)(F)F)c1)c1ccc(S(=O)(=O)Nc2ncc(Cl)s2)cc1 [Example 29, 4-{[(5-Chloro-1,3-thiazol-2-yl)amino]sulfonyl}-N-[3-(trifluoromethoxy)benzyl]benzamide]",170 nM
7,"O=C(NCc1ccc(C(F)(F)F)cc1)c1ccc(S(=O)(=O)Nc2ncns2)cc1 [Example 20, 4-[(1,2,4-Thiadiazol-5-ylamino)sulfonyl]-N-[4-(trifluoromethyl)benzyl]benzamide]",260 nM
8,"O=C(NCc1ccc(C(F)(F)F)cc1)c1ccc(S(=O)(=O)Nc2ncc(Cl)s2)cn1 [Example 344, 5-{[(5-Chloro-1,3-thiazol-2-yl)amino]sulfonyl}-N-[4-(trifluoromethyl)benzyl]pyridine-2-carboxamide]",520 nM
9,"COc1ccc(CNC(=O)c2ccc(S(=O)(=O)Nc3nccs3)cc2)cc1Cl [Example 405, N-(3-chloro-4-methoxybenzyl)-4-[(1,3-thiazol-2-ylamino)sulfonyl] benzamide]",60 nM
10,"CN(Cc1ccc(C(F)(F)F)cc1)C(=O)c1ccc(S(=O)(=O)Nc2ncc(Cl)s2)cc1 [Example 41, 4-{[(5-Chloro-1,3-thiazol-2-yl)amino]sulfonyl}-N-methyl-N-[4-(trifluoromethyl)benzyl]benzamide]",2350 nM
11,"Cc1ccc(CNC(=O)c2ccc(S(=O)(=O)Nc3nccs3)cc2)cc1F [Example 62, N-(3-fluoro-4-methylbenzyl)-4-[(1,3-thiazol-2-ylamino)sulfonyl]benzamide]",1020 nM
12,"O=C(NCc1ccc(C(F)(F)F)c(F)c1)c1ccc(S(=O)(=O)Nc2ncns2)c(F)c1 [Example 319, 3-Fluoro-N-[3-fluoro-4-(trifluoromethyl)benzyl]-4-[(1,2,4-thiadiazol-5-ylamino)sulfonyl]benzamide]",70 nM
13,"O=C(Nc1nccc2cccnc12)c1ccc(S(=O)(=O)Nc2nccs2)cc1 [Example 116, N-1,7-naphthyridin-8-yl-4-[(1,3-thiazol-2-ylamino)sulfonyl]benzamide]",> 100 nM
14,"O=C(Nc1ccn(Cc2ccc(Cl)cc2)n1)c1ccc(S(=O)(=O)Nc2ncc(Cl)s2)c(F)c1 [Example 380, N-[1-(4-chlorobenzyl)-1H-pyrazol-3-yl]-4-{[(5-chloro-1,3-thiazol-2-yl)amino]sulfonyl}-3-fluorobenzamide]",170 nM
15,"O=C(NCc1ccc(F)c(Cl)c1)c1ccc(S(=O)(=O)Nc2nccs2)c(F)c1 [Example 299, N-(3-chloro-4-fluorobenzyl)-3-fluoro-4-[(1,3-thiazol-2-yl-amino)sulfonyl]benzamide]",110 nM
16,"Cc1ccccc1CNC(=O)c1ccc(S(=O)(=O)Nc2nccs2)cc1 [Example 91, N-(2-methylbenzyl)-4-[(1,3-thiazol-2-ylamino)sulfonyl]benzamide]",1220 nM
